In assay [1] the test system is Saccharomyces cerevisiae. Kind of assay: Antifungal activity against Saccharomyces cerevisiae A364A at 0.1 mg/disk. Format: functional.
Assay [2] deals with Saccharomyces cerevisiae. Kind of assay: Antifungal activity against Saccharomyces cerevisiae STX338-2C mutant at 0.1 mg/disk. Format: functional.
The test system of assay [3] is Saccharomyces cerevisiae. The experiment in a line: Antifungal activity against Saccharomyces cerevisiae 14028g mutant at 0.1 mg/disk. Format: functional.
Assay [4] relates to Saccharomyces cerevisiae. The experiment in a line: Antifungal activity against Saccharomyces cerevisiae GT160-45c at 0.1 mg/disk. Format: functional, organism-based.
Assay [5] deals with Saccharomyces cerevisiae. Kind of assay: Antifungal activity against Saccharomyces cerevisiae RAY-3Aa at 0.1 mg/disk. Format: functional, organism-based.

Active and inactive are the calls of the source. No cut-off for these calls is given here.

For the molecule `CC(=O)O[C@@H]1C[C@]2(C)[C@H]3CC[C@]4(C)[C@@H]([C@H](C)[C@@H]5O[C@H]5[C@H](C)C(C)C)CC[C@H]4C3=CC[C@H]2[C@H](OS(=O)(=O)[O-])[C@H]1O.[Na+]` [ACANTHOSTEROL SULFATE I], the entries for the “inhibition zone (IZ)” value in the assay with Saccharomyces cerevisiae [1], with Saccharomyces cerevisiae [2] and with Saccharomyces cerevisiae [3] were 7 mm, 8 mm and 9 mm, respectively. Also, the result in the assay on Saccharomyces cerevisiae [4] and in the assay on Saccharomyces cerevisiae [5] was inactive.

Regarding `CC(=O)O[C@@H]1C[C@]2(C)[C@H]3CC[C@]4(C)[C@@H]([C@H](C)[C@@H]5O[C@H]5[C@@H](C)C(C)C)CC[C@H]4C3=CC[C@H]2[C@H](OS(=O)(=O)[O-])[C@H]1O.[Na+]` [ACANTHOSTEROL SULFATE J], the “inhibition zone (IZ)” value in the assay with Saccharomyces cerevisiae [1] is recorded as 11 mm; with Saccharomyces cerevisiae [2] it was 10 mm; with Saccharomyces cerevisiae [3], 11 mm. Moreover, the result in the assay with Saccharomyces cerevisiae [4] and in the assay on Saccharomyces cerevisiae [5] was inactive.
